Measured values from patent US20220372040A1, “METTL3 MODULATORS” (Accent Therapeutics, Inc., priority 2020, published 2022).

Assays:
PRMT5-MEP50 = PRMT5-MEP50 (Homo sapiens, UniProt O14744); test: PRMT5 assay (3H-SAM flashplate scintillation); type: biochemical; settings: PRMT5-MEP50 2.5 nM, histone H4 peptide 100 nM, 3H-SAM 250 nM, 60 min
In short: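 Radiometric methyltransferase read-out: after 60 min reaction, excess unlabelled SAM (15 μM) stops turnover and biotinylated H4 peptide (100 nM) carrying 3H-methyl from 250 nM 3H-SAM is captured on streptavidin flashplates (2 h, 25° C) for scintillation counting. Enzyme, 2.5 nM PRMT5-MEP50, was preincubated 5 min with compound in pH 8.0 Tris buffer with DTT and Tween.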

MOLM-13 cells = test: MOLM-13 48 Hour cell proliferation assay (Cell Titer-Glo); type: cell-based; settings: Homo sapiens
Method: MOLM-13 48 Hour Cell Proliferation Assay
MOLM-13 (DSMZ) cells were seeded at 1000 cells per well in a volume of 44 μL in a Falcon 384-well tissue culture treated clear bottom microplate in RPMI 1640 media containing 10% fetal bovine serum using a Multidrop Combi (ThermoFisher Scientific). Cells were incubated overnight at 37° C. in a humidified tissue culture incubator. The Mosquito® HTS Liquid Handler was used to make a compound/media intermediate plate by aliquoting […] of compound from the initial compound dilution plate (concentrations ranging from 10.0 mM to 38.0 nM in 100% DMSO) into a V bottom 384-well screen matrix plate containing 49 µL of media containing the appropriate serum (50-fold dilution, 2% DMSO). The Apricot liquid handling system was used to transfer […] compounds from the intermediate plate into the Falcon 384-well tissue culture plate containing 44 μL cells (10-point, 4-fold dilution spanning concentrations 25.0 μM to […], 0.25% DMSO final), and placed in a humidified tissue culture incubator at 37° C. After 48 hours, 25 μL of Cell Titer-Glo reagent (Promega) was added to each well using a Multidrop Combi. The plate was protected from light and placed on an IKA plate shaker for at 300 rpm for 10 minutes at room temperature. The plate was read on an EnVision plate reader (Perkin Elmer) using the Ultra Sensitive Luminescence protocol. Data analysis was performed by normalizing the raw luminescence units to an average of the positive control values for staurosporine (100% cell death) and the negative control values for DMSO (0% cell death). An IC50 was calculated using a 4-parameter logistic nonlinear regression model in GraphPad Prism.

METTL16 = biological target: T1, METTL16 (Homo sapiens, UniProt Q86W50); test: METTL16 assay (3H-SAM flashplate scintillation); type: biochemical; settings: METTL16 100 nM, RNA 50 nM, 3H-SAM 200 nM, SAM 800 nM, 20 min
T1 sequence (Q86W50 1-562): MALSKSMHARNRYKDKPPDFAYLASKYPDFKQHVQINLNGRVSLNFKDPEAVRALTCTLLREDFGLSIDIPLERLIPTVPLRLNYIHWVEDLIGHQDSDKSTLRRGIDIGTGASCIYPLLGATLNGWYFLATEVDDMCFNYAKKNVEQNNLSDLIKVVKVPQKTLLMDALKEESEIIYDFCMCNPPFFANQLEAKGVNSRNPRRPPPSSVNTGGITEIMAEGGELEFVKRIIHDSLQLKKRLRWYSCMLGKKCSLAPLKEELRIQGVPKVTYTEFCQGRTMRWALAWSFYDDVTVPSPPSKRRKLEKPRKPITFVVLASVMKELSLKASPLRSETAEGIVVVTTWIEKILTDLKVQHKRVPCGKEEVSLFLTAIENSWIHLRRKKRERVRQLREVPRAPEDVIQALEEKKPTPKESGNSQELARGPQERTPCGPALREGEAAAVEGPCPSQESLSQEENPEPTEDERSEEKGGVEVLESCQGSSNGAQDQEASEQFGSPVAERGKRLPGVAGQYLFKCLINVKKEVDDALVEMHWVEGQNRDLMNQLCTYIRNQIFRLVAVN
In short: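 Radiometric methyltransferase reaction at ambient temperature in 20 mM HEPES pH 7.5, 50 mM KCl, 1 mM DTT, with 100 nM enzyme preincubated 5 min with compound. It was started with 50 nM 3′-biotinylated RNA, 200 nM 3H-SAM plus 800 nM cold SAM, run 20 min, then quenched with excess cold SAM. Product was captured on streptavidin flashplates and scintillation-counted.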

METTL3/METTL14 = METTL3/METTL14 (Homo sapiens, UniProt Q86U44); test: METTL3-14 standard enzyme assay (3H-SAM flashplate scintillation); type: biochemical; settings: METTL3/METTL14 2.5 nM, RNA 100 nM, 3H-SAM 100 nM, 30 min
METTL3/METTL14, sequence (Q86U44 whole entry, species assumed): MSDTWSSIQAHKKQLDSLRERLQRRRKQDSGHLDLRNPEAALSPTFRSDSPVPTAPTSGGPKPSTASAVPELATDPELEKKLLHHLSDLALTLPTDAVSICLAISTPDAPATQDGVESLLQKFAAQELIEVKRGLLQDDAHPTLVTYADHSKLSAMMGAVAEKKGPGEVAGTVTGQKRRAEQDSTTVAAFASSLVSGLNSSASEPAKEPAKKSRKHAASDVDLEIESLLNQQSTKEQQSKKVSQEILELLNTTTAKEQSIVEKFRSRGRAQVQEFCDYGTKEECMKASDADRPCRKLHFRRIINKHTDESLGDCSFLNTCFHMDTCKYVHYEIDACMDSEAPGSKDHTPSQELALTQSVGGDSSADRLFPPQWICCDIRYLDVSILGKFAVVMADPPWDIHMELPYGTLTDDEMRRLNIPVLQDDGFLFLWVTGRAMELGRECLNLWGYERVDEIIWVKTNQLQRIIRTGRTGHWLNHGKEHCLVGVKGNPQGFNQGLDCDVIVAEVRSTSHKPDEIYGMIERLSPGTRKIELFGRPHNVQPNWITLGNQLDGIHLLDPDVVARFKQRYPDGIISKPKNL
METTL3/METTL14, sequence (Q9HCE5 whole entry partner, species assumed): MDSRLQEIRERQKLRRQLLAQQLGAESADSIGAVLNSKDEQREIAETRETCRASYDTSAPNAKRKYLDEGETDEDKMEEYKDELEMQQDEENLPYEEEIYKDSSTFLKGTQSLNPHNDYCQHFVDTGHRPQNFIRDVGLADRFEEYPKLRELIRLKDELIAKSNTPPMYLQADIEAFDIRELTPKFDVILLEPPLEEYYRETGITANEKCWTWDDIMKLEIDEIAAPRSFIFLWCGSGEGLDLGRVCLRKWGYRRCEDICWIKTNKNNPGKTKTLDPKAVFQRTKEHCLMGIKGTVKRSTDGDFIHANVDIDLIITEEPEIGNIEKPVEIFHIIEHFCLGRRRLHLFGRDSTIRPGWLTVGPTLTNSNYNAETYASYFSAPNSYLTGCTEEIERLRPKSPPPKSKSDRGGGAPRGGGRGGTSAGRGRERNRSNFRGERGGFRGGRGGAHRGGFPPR
In short: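 Radiometric methylation readout: biotinylated RNA substrate UCUGGACUAAA and 3H-SAM, each 100 nM final, reacted 30 min at ambient temperature with 2.5 nM enzyme complex after 5 min compound preincubation (HEPES pH 7.5 buffer, KCl, MgCl2, DTT). Excess unlabelled SAM (15 μM) stopped reactions before streptavidin flashplate capture.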

[1] = tested on: m^6 A in cellular mRNA of MOLM-13 cells; test: m^6 A-mRNA LC-MS/MS assay (m^6 A cellular assay); type: cell-based; settings: Homo sapiens, 24 hours incubation, LC-MS/MS of m^6 A/A in mRNA
Method: m^6 A-mRNA LC-MS/MS Assay
5×10^6 MOLM-13 (DSMZ) cells were seeded into 10 cm dishes in RPMI 1640 media containing 10% fetal bovine serum and placed in a humidified tissue culture incubator at 37° C. overnight. Compounds were resuspended in 100% DMSO and dosed into each dish at a fixed concentration to comprise an 8-point dose response with a 4-fold serial dilution ranging from 25 μM to 1.5 nM in 0.25% DMSO final and allowed to incubate for 24 hours in a humidified tissue culture incubator at 37° C. Cells were harvested by centrifugation followed by mRNA extraction using DTRECT Dynabeads mRNA DTRECT kit (Life Technologies). mRNA was quantified on NanoDrop spectrophotometer (Thermo Fisher Scientific) and digested into single nucleosides using Nucleoside Digestion Mix (New England Biolabs). Nucleosides are quantified with retention time on a BEH […] column (Waters) and the nucleoside-to-base ion mass transition of 282.1-150.1 (m^6 A) and 268-136 (A) on an API 6500+ triple quadrupole mass spectrometer. Quantification is performed in comparison with the standard curve, obtained from pure nucleoside standards (Selleck Chemicals) running with the same batch of samples. Percentage m^6 A in cellular mRNA is calculated as 100*(m^6 A/A).

METTL1/WDR4 = METTL1/WDR4 (Homo sapiens, UniProt Q9UBP6); test: METTL1 assay (3H-SAM flashplate scintillation); type: biochemical; settings: METTL1/WDR4 6.25 nM, RNA 25 nM, 3H-SAM 60 nM, 20 min; read-out: METTL1 IC50
METTL1/WDR4, sequence (Q9UBP6 whole entry, species assumed): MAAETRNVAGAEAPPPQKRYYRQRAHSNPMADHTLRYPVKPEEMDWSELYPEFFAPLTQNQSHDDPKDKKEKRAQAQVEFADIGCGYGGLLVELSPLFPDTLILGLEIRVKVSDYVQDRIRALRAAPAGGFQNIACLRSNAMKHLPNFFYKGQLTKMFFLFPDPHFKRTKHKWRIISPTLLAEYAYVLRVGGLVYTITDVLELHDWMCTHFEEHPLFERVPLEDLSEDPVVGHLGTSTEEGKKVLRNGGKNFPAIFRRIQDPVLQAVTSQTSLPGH
METTL1/WDR4, sequence (P57081 whole entry partner, species assumed): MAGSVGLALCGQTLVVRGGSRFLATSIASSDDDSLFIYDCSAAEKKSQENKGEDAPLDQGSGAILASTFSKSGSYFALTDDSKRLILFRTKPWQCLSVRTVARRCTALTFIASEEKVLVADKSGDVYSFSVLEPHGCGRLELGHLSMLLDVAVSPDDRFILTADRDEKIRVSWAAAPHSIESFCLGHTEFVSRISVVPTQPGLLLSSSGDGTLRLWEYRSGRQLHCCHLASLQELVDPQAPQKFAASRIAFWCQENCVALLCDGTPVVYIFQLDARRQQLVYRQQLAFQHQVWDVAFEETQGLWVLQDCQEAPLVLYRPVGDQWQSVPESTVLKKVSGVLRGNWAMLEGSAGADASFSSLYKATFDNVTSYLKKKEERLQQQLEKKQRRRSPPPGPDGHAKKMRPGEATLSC
In short: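 Radiometric methyltransfer by METTL1/WDR4 (6.25 nM f.c., 5 min preincubation) at ambient temperature in HEPES pH 7.5, KCl, MgCl2, DTT; started with 25 nM 3′-biotinylated RNA and 60 nM 3H-SAM, run 20 min, quenched with 15 μM cold SAM. Product captured on streptavidin flashplates (2 h, 25° C), counted by scintillation.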

PRMT5-MEP50, sequence (O14744 whole entry): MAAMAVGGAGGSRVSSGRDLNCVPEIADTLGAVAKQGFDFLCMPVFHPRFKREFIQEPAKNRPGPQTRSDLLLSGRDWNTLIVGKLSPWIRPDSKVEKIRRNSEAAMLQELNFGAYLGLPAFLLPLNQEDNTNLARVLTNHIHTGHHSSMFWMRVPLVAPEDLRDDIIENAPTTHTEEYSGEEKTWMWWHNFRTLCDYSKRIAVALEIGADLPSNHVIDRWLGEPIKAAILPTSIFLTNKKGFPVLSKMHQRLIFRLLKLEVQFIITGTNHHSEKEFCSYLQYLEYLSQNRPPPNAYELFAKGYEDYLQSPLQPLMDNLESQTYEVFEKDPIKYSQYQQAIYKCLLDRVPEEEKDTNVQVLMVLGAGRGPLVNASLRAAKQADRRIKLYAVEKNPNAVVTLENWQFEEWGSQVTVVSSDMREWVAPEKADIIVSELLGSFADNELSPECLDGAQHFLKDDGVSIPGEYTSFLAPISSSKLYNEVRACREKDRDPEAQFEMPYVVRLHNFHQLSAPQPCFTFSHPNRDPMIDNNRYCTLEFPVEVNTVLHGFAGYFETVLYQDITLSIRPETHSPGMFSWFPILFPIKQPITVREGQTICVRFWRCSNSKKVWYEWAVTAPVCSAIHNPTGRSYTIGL
PRMT5-MEP50, sequence (Q9BQA1 whole entry partner): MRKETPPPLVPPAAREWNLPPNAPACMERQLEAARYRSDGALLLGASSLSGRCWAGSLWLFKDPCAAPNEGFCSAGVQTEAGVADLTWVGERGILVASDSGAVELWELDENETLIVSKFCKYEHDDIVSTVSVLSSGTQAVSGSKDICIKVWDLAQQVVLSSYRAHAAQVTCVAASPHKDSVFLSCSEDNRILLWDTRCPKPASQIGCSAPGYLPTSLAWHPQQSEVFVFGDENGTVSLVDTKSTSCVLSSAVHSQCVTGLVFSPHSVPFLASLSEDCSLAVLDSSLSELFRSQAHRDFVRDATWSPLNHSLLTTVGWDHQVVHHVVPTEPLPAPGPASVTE

Row | IC50 (PRMT5-MEP50) [nM] | IC50 (MOLM-13 cells) [µM] | IC50 (METTL16) [nM] | IC50 (METTL3/METTL14) [nM] | IC50 [1] [µM] | Compound | IC50 (METTL1/WDR4) [nM]
1 | > 1000 | 1 to 10 | > 1000 | < 10 | 1 to 10 | CCNc1ccc2ccc(OCc3cncc(-n4cc(Cl)c5c(N)ncnc54)c3)cc2n1 [Compound I-59] | 
2 | > 1000 | ≥ 10 | > 1000 | < 10 | ≥ 10 | CNc1ccc2ccc(OCc3cncc(-c4c[nH]c5c(N)ncnc45)c3)cc2n1 [Compound I-47, 7-[(5-{4-amino-5H-pyrrolo[3,2-d]pyrimidin-7-yl}pyridin-3-yl)methoxy]-N-methylquinolin-2-amine] | 
3 | > 1000 | ≥ 10 | > 1000 | < 10 | ≥ 10 | CNc1ccc2ccc(OCc3cncc(-c4c(C)[nH]c5c(N)ncnc45)c3)cc2n1 [Compound I-25] | 
4 | > 1000 | < 1 | > 1000 | < 10 | 1 to 10 | CNc1ccc2ccc(OCc3cncc(-n4ccc5c(N)ncnc54)c3)cc2n1 [Compound I-60] | 
5 | > 1000 | ≥ 10 | > 1000 | < 10 | ≥ 10 | CCc1cc(N)c2ccc(OCc3cncc(-n4ccc5c(N)ncnc54)c3)cc2n1 [Compound I-45] | 

Row | Compound | IC50 (PRMT5-MEP50) [nM] | IC50 (MOLM-13 cells) [µM] | IC50 (METTL16) [nM] | IC50 (METTL3/METTL14) [nM] | IC50 [1] [µM] | IC50 (METTL1/WDR4) [nM]
6 | CNc1ccc2ccc(OCc3cc(CO)cc(-c4c[nH]c5c(N)ncnc45)c3)cc2n1 [Compound I-10] | > 1000 | ≥ 10 |  | < 10 | ≥ 10 | > 1000
7 | CNc1ccc2ccc(OCc3cncc(-n4cc(C)c5c(N)ncnc54)c3)cc2n1 [Compound I-17] | > 1000 | < 1 |  | < 10 | ≥ 10 | > 1000
